Assay results from PMC5948155 (ACS infectious diseases, 2018).
Entries after “also recorded” stand apart in the source; their conditions may differ. Where a name gives a salt, the structure may show the parent alone. Read-outs that look alike come from different tables or passages of the source.

Assays:
Format in all cases: cell-based
[1] = biological target: T1, cholera toxin subunit B (CTB) (Vibrio cholerae serotype O1, UniProt P01556); assay: cell-based
[2] = biological target: T1, cholera toxin subunit B (CTB)
[3] = biological target: T2, Aleuria aurantia lectin (AAL) (Aleuria aurantia, UniProt P18891)
T2 sequence (P18891 1-313): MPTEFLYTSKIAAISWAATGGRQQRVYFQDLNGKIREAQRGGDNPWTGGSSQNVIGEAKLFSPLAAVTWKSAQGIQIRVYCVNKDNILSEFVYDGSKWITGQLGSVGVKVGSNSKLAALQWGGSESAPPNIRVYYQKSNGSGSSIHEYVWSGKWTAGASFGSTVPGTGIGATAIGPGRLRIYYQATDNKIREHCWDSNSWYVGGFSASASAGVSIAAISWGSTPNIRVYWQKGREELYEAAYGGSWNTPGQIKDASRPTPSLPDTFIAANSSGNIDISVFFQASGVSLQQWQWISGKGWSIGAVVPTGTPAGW

[4] = biological target: T2, Aleuria aurantia lectin (AAL); remark: listed apart in the source
[5] = biological target: T1, cholera toxin subunit B (CTB); remark: listed apart in the source
[6] = biological target: Sambucus nigra lectin (SNA) (Sambucus nigra, UniProt Q41358)
Sequence of Sambucus nigra lectin (SNA) (Q41358 309-570 limits assumed): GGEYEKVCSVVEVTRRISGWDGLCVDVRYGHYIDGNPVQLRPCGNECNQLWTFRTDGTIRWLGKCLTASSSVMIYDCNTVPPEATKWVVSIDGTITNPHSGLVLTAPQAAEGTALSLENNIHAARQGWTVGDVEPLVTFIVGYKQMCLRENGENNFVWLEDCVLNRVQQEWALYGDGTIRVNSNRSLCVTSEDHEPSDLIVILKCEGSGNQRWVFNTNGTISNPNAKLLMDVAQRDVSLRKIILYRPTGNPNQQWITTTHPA
Sequence of Sambucus nigra lectin (SNA) (Q41358 29-292 partner limits assumed): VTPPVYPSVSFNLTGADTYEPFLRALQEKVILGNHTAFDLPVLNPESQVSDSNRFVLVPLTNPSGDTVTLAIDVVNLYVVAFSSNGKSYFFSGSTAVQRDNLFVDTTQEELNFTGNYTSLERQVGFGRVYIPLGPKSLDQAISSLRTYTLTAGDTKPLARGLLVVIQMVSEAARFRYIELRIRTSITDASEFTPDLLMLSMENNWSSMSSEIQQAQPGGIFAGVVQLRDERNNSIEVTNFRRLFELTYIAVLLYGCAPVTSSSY

CTB = CTB (Vibrio cholerae serotype O1, UniProt P01556)
Sequence of CTB (P01556 22-124 limits assumed): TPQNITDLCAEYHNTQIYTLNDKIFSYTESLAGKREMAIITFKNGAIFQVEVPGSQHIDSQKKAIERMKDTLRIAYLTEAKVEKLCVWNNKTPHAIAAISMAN

[7] = biological target: T3, Maackia amurensis lectin I (MAL I) (Maackia amurensis, UniProt P0DKL3)
T3 sequence (P0DKL3 30-287): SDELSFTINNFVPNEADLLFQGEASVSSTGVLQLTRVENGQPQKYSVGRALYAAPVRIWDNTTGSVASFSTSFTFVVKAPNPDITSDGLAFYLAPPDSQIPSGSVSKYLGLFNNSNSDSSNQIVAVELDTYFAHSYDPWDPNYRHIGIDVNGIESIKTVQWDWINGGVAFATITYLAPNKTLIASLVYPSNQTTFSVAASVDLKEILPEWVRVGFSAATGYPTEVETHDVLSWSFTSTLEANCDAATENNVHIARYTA

T1 sequence (P01556 22-124 limits assumed): as the sequence (P01556 22-124 limits assumed) above

Compound | Inhibition of CTB binding to Colo205 cells (in words) [1] | Inhibition of CTB binding to T84 cells (in words) [2] | Inhibition of AAL binding to Colo205 cells (in words) [3] | also measured
COC1OC(C)C(O)C(O)C1O [methyl β-L-fucose, Methyl b-L-fucopyranoside] | significantly less | inhibitory activity was not observed |  | 
C[C@@H]1OC(O)[C@@H](O)C[C@@H]1O (stereo partly drawn) [L-colitose] |  | significant loss in inhibitory potential |  | 
CC(=O)N[C@H]1[C@H]([C@H](O)[C@H](O)CO)O[C@@](O[C@H]2[C@@H](O)[C@@H](CO)O[C@@H](O[C@@H]([C@H](O[C@@H]3O[C@@H](C)[C@@H](O)[C@@H](O)[C@@H]3O)[C@H](C=O)NC(C)=O)[C@H](O)CO)[C@@H]2O)(C(=O)O)C[C@@H]1O [sLeX, 3′-Sialyl Lewis X] |  |  |  | Inhibitory potential, fold less than that of LeY [1]: 2 fold; Inhibition of CTB binding to T84 cells, titration of inhibitor (in words) [2]: near complete inhibition; AAL lectin retained bound to the cell surface [3]: ~ 70%
OC[C@H]1O[C@@H](O[C@H]2[C@H](O)[C@@H](O)[C@H](O)O[C@@H]2CO)[C@H](O)[C@@H](O)[C@H]1O [lactose, d-Lactose monohydrate] |  | did not inhibit |  | inhibition at 100000 µM ([1]; COLO 205, read-out: Inhibition of CTB binding): ~50%
OC1OC[C@@H](O)[C@@H](O)[C@@H]1O (stereo partly drawn) [D-arabinose, d-(−)-Arabinose] | indistinguishably from the no sugar control | indistinguishably from the no sugar control | effective inhibitors | Inhibition of AAL binding to T84 cells (in words) [4]: effective inhibitors
C[C@H](O)C[C@@H](O)[C@H](O)C=O [4-deoxy-fucose, 4-Deoxy-L-fucose] | complete loss in inhibitory potential | complete loss in inhibitory potential |  | 
CC(=O)N[C@H]1C(O)O[C@H](CO)[C@@H](O[C@@H]2O[C@H](CO)[C@H](O)[C@H](O)[C@H]2O)[C@@H]1O (stereo partly drawn) [LacNAc, N-Acetyl-D-lactosamine] |  |  |  | Inhibition of CTB binding to primary human jejunal epithelial cells (in words) [5]: no inhibition
CC(=O)N[C@H]1[C@@H](O[C@H]2[C@@H](O)[C@@H](CO)O[C@@H](O[C@H]3[C@H](O[C@@H]4O[C@@H](C)[C@@H](O)[C@@H](O)[C@@H]4O)[C@@H](NC(C)=O)C(O)O[C@@H]3CO)[C@@H]2O[C@@H]2O[C@@H](C)[C@@H](O)[C@@H](O)[C@@H]2O)O[C@H](CO)[C@H](O)[C@@H]1O (stereo partly shown) [ALeY] | failed to produce a further increase in potency; also recorded: less effectively than LeY |  |  | 
CO[C@@H]1O[C@@H](C)[C@@H](O)[C@@H](O)[C@@H]1O [methyl α-L-fucose, Methyl a-L-fucopyranoside] | inhibited CTB binding as efficiently as L-fucose | suppression of CTB binding was observed |  | 
Asialo-GM1-tetrasaccharide [GA1(os)] | significantly attenuated |  |  | Inhibition of CTB binding to T84 cells, titration of inhibitor (in words) [2]: no inhibition
CC(=O)N[C@H]1C(O)O[C@H](CO)[C@@H](O[C@@H]2O[C@H](CO)[C@H](O)[C@H](O)[C@H]2O[C@@H]2O[C@@H](C)[C@@H](O)[C@@H](O)[C@@H]2O)[C@@H]1O (stereo partly shown) [H antigen, Blood group H antigen triaose type 2] |  |  |  | Reduction of CTB binding compared to the no sugar control [1]: at least 75%
CC(=O)N[C@H]1C(O)O[C@H](CO)[C@@H](O[C@@H]2O[C@H](CO)[C@H](O)[C@H](O)[C@H]2O[C@@H]2O[C@@H](C)[C@@H](O)[C@@H](O)[C@@H]2O)[C@@H]1O[C@@H]1O[C@@H](C)[C@@H](O)[C@@H](O)[C@@H]1O (mixture of isomers) [LeY, Fucα2Galβ4[Fucα3]GlcNAc] | most potent blocker |  | more efficient; also recorded: capable of inhibiting | CTB binding, % of the no sugar control [1]: ~ 20%; Inhibition of CTB binding to T84 cells, titration of inhibitor (in words) [2]: near complete inhibition; Inhibition of CTB binding to primary human jejunal epithelial cells (in words) [5]: effectively block; AAL lectin retained bound to the cell surface [3]: ~ 15%
CC(=O)N[C@H]1[C@H]([C@H](O)[C@H](O)CO)O[C@@](O[C@H]2[C@@H](O)[C@@H](CO)O[C@@H](O[C@H]3[C@H](O)[C@@H](NC(C)=O)C(O)O[C@@H]3CO)[C@@H]2O)(C(=O)O)C[C@@H]1O (stereo partly shown) [3′-SLN, 3′-Sialyl-N-acetyllactosamine] | incapable of inhibiting |  |  | 
CC1OC(OC2C(OC3C(CO)OC(O)C(O)C3O)OC(CO)C(O)C2O)C(O)C(O)C1O (stereo not shown) [2′-FL, 2′-Fucosyllactose] | more potent inhibitor than L-fucose alone | more potent inhibitor | inhibit binding | IC50 [1]: 3 mM; Reduction of CTB binding compared to the no sugar control [1]: at least 75%; Reduction of IC50 relative to L-fucose [1]: ~ 5 fold
C[C@@H](O)[C@@H](O)[C@H](O)[C@@H](O)C=O [6-deoxy-D-glucose] | only minor effects | no effect | virtually no effect | Inhibition of AAL binding to T84 cells (in words) [4]: virtually no effect
C[C@H]1OC(O)[C@H](O)[C@@H](O)[C@H]1O (stereo partly drawn) [D-fucose, d-(+)-Fucose] | only minor effects | only a modest effect | virtually no effect | Inhibition of AAL binding to T84 cells (in words) [4]: virtually no effect
CC(=O)N[C@H]1[C@H]([C@H](O)[C@H](O)CO)O[C@@](OC[C@H]2O[C@@H](O[C@H]3[C@H](O)[C@@H](O)[C@H](O)O[C@@H]3CO)[C@H](O)[C@@H](O)[C@H]2O)(C(=O)O)C[C@@H]1O [6′-SL, 6′-Sialyllactose sodium salt] | no inhibition | no inhibition |  | Inhibition of SNA binding (in words) [6]: enhance the inhibitory potential of lactose
CC(=O)NC1C(O)CC(OC2C(O)C(OC3C(CO)OC(O)C(O)C3O)OC(CO)C2OC2OC(CO)C(O)C(OC3OC(CO)C(O)C(O)C3O)C2NC(C)=O)(C(=O)O)OC1C(O)C(O)CO (stereo not shown) [GM1a(os), GM1a ganglioside sugar] |  |  |  | CTB binding, % of the no sugar control [1]: ~ 5%; Fold more potent than LeY in inhibiting CTB binding [1]: approximately 2000 fold; IC50 ([1]; read-out: IC50 against CTB binding): 0.000109 ± 3.8e-05 mM; Inhibition of CTB binding to T84 cells, titration of inhibitor (in words) [2]: could not completely inhibit CTB binding
O=C[C@@H](O)[C@H](O)[C@H](O)[C@@H](O)CO [L-galactose, L-Galactose] | modest loss in inhibition | modest loss in inhibition | effective inhibitors | Inhibition of AAL binding to T84 cells (in words) [4]: effective inhibitors
CC(=O)NC1C(O)OC(CO)C(OC2OC(CO)C(O)C(OC3OC(CO)C(O)C(O)C3O)C2OC2OC(C)C(O)C(O)C2O)C1OC1OC(C)C(O)C(O)C1O (stereo not shown) [BLeY] | failed to produce a further increase in potency; also recorded: comparable blocking activity as LeY |  |  | 
C[C@@H]1O[C@@H](O[C@H]2[C@H](O[C@H]3[C@H](O[C@@H]4O[C@@H](C)[C@@H](O)[C@@H](O)[C@@H]4O)[C@@H](O)C(O)O[C@@H]3CO)O[C@H](CO)[C@H](O)[C@@H]2O)[C@@H](O)[C@H](O)[C@@H]1O (stereo partly shown) [DF-L, Difucosyllactose] |  |  | more efficient | Reduction of CTB binding compared to the no sugar control [1]: at least 75%
C[C@H](O)[C@@H](O)[C@@H](O)[C@H](F)C=O [2-deoxy-2-fluoro-L-fucose, 2-Deoxy-2-fluoro-L-fucose] | indistinguishable | indistinguishable |  | 
O=C[C@@H](O)[C@H](O)[C@@H](O)[C@@H](O)CO [L-glucose] |  |  |  | Inhibition of CTB binding (in words) (CTB): loss of all inhibitory activity
C[C@H](O)[C@@H](O)[C@@H](O)[C@H](O)C=O [L-fucose, l-(−)-Fucose] |  | dramatically suppress; also recorded: suppression of CTB binding was observed | effectively block | CTB binding, % of the no sugar control [1]: ~ 20%; IC50 [1]: 14.5 mM; Inhibition of AAL binding to T84 cells (in words) [4]: effectively block
CC(=O)N[C@H]1[C@H]([C@H](O)[C@H](O)CO)O[C@@](O[C@H]2[C@@H](O)[C@@H](CO)O[C@@H](O[C@H]3[C@H](O)[C@@H](O)C(O)O[C@@H]3CO)[C@@H]2O)(C(=O)O)C[C@@H]1O (stereo partly shown) [3′-SL, 3′-Sialyllactose sodium salt] | no inhibition | no inhibition |  | Inhibition of MAL I binding (in words) [7]: enhance the inhibitory potential of lactose
